ChEMBL document CHEMBL1201862, “PubChem BioAssay data set” (2004)
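Step 1: Grow cells in 96-well plates. Step 2: Expose to compound for 48 hours at 5 concentrations. Step 3: Interpolate endpoints linearly; if unreached, use highest concentration. GI50 marks 50% less growth.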 Calls of active or inactive are those of the source. Rule as the data show it: active = GI50 up to about 1.1 µM and inactive = higher.

Key:
Test in all cases: growth of human tumour cells (NCI), 48 h
ACHN = tested on: ACHN
BT-549 = tested on: BT-549
CCRF-CEM = tested on: CCRF-CEM
EKVX = tested on: EKVX
HCT-116 = tested on: HCT-116
Hs-578T = tested on: Hs-578T
K562 = tested on: K562
MCF7 = tested on: MCF7
NCI-H226 = tested on: NCI-H226
OVCAR-3 = tested on: OVCAR-3
OVCAR-8 = tested on: OVCAR-8
PC-3 = tested on: PC-3
SF-268 = tested on: SF-268
SK-MEL-28 = tested on: SK-MEL-28
SK-MEL-2 = tested on: SK-MEL-2
SW-620 = tested on: SW-620
T47D = tested on: T47D
U-251 = tested on: U-251
LOX IMVI = tested on: LOX IMVI
SR = tested on: SR

Compound | GI50 (ACHN) | GI50 (BT-549) | GI50 (CCRF-CEM) | GI50 (EKVX) | GI50 (HCT-116) | GI50 (Hs-578T) | GI50 (K562) | GI50 (MCF7) | GI50 (NCI-H226) | GI50 (OVCAR-3) | GI50 (OVCAR-8) | GI50 (PC-3) | GI50 (SF-268) | GI50 (SK-MEL-28) | GI50 (SK-MEL-2) | GI50 (SW-620) | GI50 (T47D) | GI50 (U-251) | GI50 (LOX IMVI) | GI50 (SR)
CC(C)(C)OC(=O)N(CCCCNCc1ccc2ccccc2c1)CCCNCc1ccc2ccccc2c1 | 1.92 µM (inactive) | 1.73 µM (inactive) | 1.22 µM (inactive) | 1.56 µM (inactive) | 1.15 µM (inactive) | 1.77 µM (inactive) | 0.273 µM (active) | 1.55 µM (inactive) | 1.64 µM (inactive) | 1.93 µM (inactive) | 1.67 µM (inactive) | 1.94 µM (inactive) | 1.77 µM (inactive) | 1.8 µM (inactive) | 2.06 µM (inactive) | 1.75 µM (inactive) | 1.74 µM (inactive) | 1.89 µM (inactive) |  | 
O=C(CN1c2ccccc2Sc2ccccc21)n1cnc2ccccc21 | > 100 µM (inactive) | > 100 µM (inactive) | 73.1 µM (inactive) | > 100 µM (inactive) | > 100 µM (inactive) | > 100 µM (inactive) | 99.5 µM (inactive) | > 100 µM (inactive) | 45 µM (inactive) | 62.8 µM (inactive) | 72.6 µM (inactive) | 70.6 µM (inactive) | > 100 µM (inactive) | > 100 µM (inactive) | > 100 µM (inactive) | > 100 µM (inactive) | 49.8 µM (inactive) | 43.5 µM (inactive) | 95.3 µM (inactive) | 
C/C(=N\c1cc(Cl)cc(Cl)c1)c1ccncc1 | > 100 µM (inactive) | > 100 µM (inactive) | > 100 µM (inactive) | > 100 µM (inactive) | > 100 µM (inactive) | > 100 µM (inactive) | > 100 µM (inactive) | > 100 µM (inactive) | > 100 µM (inactive) | > 100 µM (inactive) | > 100 µM (inactive) | > 100 µM (inactive) | > 100 µM (inactive) | > 100 µM (inactive) | > 100 µM (inactive) | > 100 µM (inactive) | > 100 µM (inactive) | > 100 µM (inactive) | > 100 µM (inactive) | 
CC1OC(OC2C(O[C@@H]3C[C@@H]4CC[C@@H]5[C@H](CC[C@]6(C)[C@@H]7[C@H](C[C@@H]56)O[C@]5(CC[C@@H](C)CO5)[C@H]7C)[C@@]4(C)C[C@H]3O)OC(CO)C(OC3OC(CO)C(O)C(O)C3O)C2O)C(O)C(O)C1O (some centres not stated) | 1.79 µM (inactive) | 2.23 µM (inactive) | 1.92 µM (inactive) | 1.51 µM (inactive) | 3.78 µM (inactive) | 2.02 µM (inactive) | 5.92 µM (inactive) | 1.85 µM (inactive) | 1.44 µM (inactive) | 1.65 µM (inactive) | 1.52 µM (inactive) | 1.52 µM (inactive) | 1.84 µM (inactive) | 1.75 µM (inactive) | 1.74 µM (inactive) | 1.67 µM (inactive) | 3.66 µM (inactive) | 1.81 µM (inactive) |  | 
N=c1c2c3n(c4c(=O)n(-c5ccccc5)c(=S)n(c(=O)n1-c1ccccc1)c24)CCCCC3 | > 100 µM (inactive) | > 100 µM (inactive) | > 100 µM (inactive) | > 91.4 µM (inactive) | > 100 µM (inactive) | > 100 µM (inactive) |  | > 100 µM (inactive) | > 100 µM (inactive) | > 100 µM (inactive) | > 100 µM (inactive) | > 100 µM (inactive) | > 100 µM (inactive) | > 100 µM (inactive) | > 100 µM (inactive) | > 100 µM (inactive) | 55.6 µM (inactive) | > 100 µM (inactive) | > 100 µM (inactive) | 
CC[C@](C)(O)C(=O)O[C@H]1C(=O)O[C@@H]2C[C@H]3C(C)=CC(=O)[C@@H](O)[C@]3(C)[C@H]3[C@@]4(O)OC[C@]32[C@@H]1[C@@H](C)[C@H]4O [GLAUCARUBINONE] | 0.292 µM (active) | 0.229 µM (active) | 0.05 µM (active) | 0.0545 µM (active) | 0.05 µM (active) | 0.167 µM (active) | 0.05 µM (active) |  | 0.113 µM (active) | 0.0982 µM (active) | 0.0753 µM (active) | 0.458 µM (active) | 0.0661 µM (active) | 0.05 µM (active) | 0.0625 µM (active) | 0.075 µM (active) | 0.176 µM (active) | 0.05 µM (active) | 0.0354 µM (active) | 0.0453 µM (active)
COc1ccc(C2N(c3ccc(F)cc3)C(=O)N3C(c4ccc(OC)cc4)N(c4ccc(F)cc4)C(=O)N23)cc1 (configuration not stated) | > 100 µM (inactive) | > 100 µM (inactive) | > 100 µM (inactive) | > 100 µM (inactive) | > 100 µM (inactive) | > 100 µM (inactive) |  |  |  | > 100 µM (inactive) | > 100 µM (inactive) | > 100 µM (inactive) | > 100 µM (inactive) | > 100 µM (inactive) | > 100 µM (inactive) | > 100 µM (inactive) | > 100 µM (inactive) | > 100 µM (inactive) | > 100 µM (inactive) | 34 µM (inactive)
COC(=O)[C@]1(c2cc3ccccc3[nH]2)CC2CN(CC(=O)N(C)OC)C1C1OC(C)(C)OC21 (some centres not stated) | 42.7 µM (inactive) | 43 µM (inactive) | 53.8 µM (inactive) | 63.5 µM (inactive) | 32.4 µM (inactive) | > 100 µM (inactive) | 35.2 µM (inactive) | 36.1 µM (inactive) | 56 µM (inactive) | 41.8 µM (inactive) | 75.3 µM (inactive) | 42.5 µM (inactive) | > 100 µM (inactive) | > 100 µM (inactive) | 74.8 µM (inactive) | 93.3 µM (inactive) | 28.6 µM (inactive) | 54.3 µM (inactive) | 59.7 µM (inactive) | 
O=C1CCCCC(=O)Nc2ccccc2N1 | > 100 µM (inactive) | > 100 µM (inactive) | > 100 µM (inactive) | > 100 µM (inactive) | > 100 µM (inactive) | > 100 µM (inactive) | > 100 µM (inactive) |  | > 100 µM (inactive) | > 100 µM (inactive) | > 100 µM (inactive) | > 100 µM (inactive) | > 100 µM (inactive) | > 100 µM (inactive) | > 100 µM (inactive) | > 100 µM (inactive) | > 100 µM (inactive) | > 100 µM (inactive) | > 100 µM (inactive) | 39.4 µM (inactive)
CCC1OC2(C)CC(C#N)(C#N)C1(C#N)C(=N)O2 (configuration not stated) | > 100 µM (inactive) | > 100 µM (inactive) | > 100 µM (inactive) | > 100 µM (inactive) | > 100 µM (inactive) | > 100 µM (inactive) | > 100 µM (inactive) | > 100 µM (inactive) |  | > 100 µM (inactive) |  | > 100 µM (inactive) | > 100 µM (inactive) | > 100 µM (inactive) | > 100 µM (inactive) | > 100 µM (inactive) | > 100 µM (inactive) | > 100 µM (inactive) | > 100 µM (inactive) | 
O=C1NN=C(c2c[nH]c3ccccc23)CC1NCc1ccccc1 (configuration not stated) | > 100 µM (inactive) | > 100 µM (inactive) | > 100 µM (inactive) |  | > 100 µM (inactive) | > 100 µM (inactive) | > 100 µM (inactive) |  | > 100 µM (inactive) | > 100 µM (inactive) | > 100 µM (inactive) | > 100 µM (inactive) | > 100 µM (inactive) | > 100 µM (inactive) | > 100 µM (inactive) | > 100 µM (inactive) | > 100 µM (inactive) | > 100 µM (inactive) | > 100 µM (inactive) | 
Cc1ccc(/N=N/c2c(O)c(C(=O)O)cc3ccccc23)c(S(=O)(=O)O)c1 | > 100 µM (inactive) | > 100 µM (inactive) | > 100 µM (inactive) | > 100 µM (inactive) | > 100 µM (inactive) | > 100 µM (inactive) | > 100 µM (inactive) |  | > 100 µM (inactive) | > 100 µM (inactive) | > 100 µM (inactive) | > 100 µM (inactive) | > 100 µM (inactive) | > 100 µM (inactive) | > 100 µM (inactive) | > 100 µM (inactive) | > 100 µM (inactive) | > 100 µM (inactive) | > 100 µM (inactive) | > 100 µM (inactive)
Cc1ccc(C2(c3ccc(Cl)cc3)c3ccccc3C3=NCCN32)cc1 (configuration not stated) | 6.93 µM (inactive) | 12.6 µM (inactive) | 4.5 µM (inactive) | 14.1 µM (inactive) | 2.19 µM (inactive) | 14.2 µM (inactive) | 3.74 µM (inactive) | 1.44 µM (inactive) | 16.3 µM (inactive) | 10.3 µM (inactive) | 14.5 µM (inactive) | 8.3 µM (inactive) | 15.1 µM (inactive) | 14.7 µM (inactive) | 12.2 µM (inactive) | 10.8 µM (inactive) | 15.7 µM (inactive) | 11.5 µM (inactive) | 12.8 µM (inactive) | 
Oc1ccc(SCc2cc(O)ccc2O)cc1 | 13.7 µM (inactive) | 3.81 µM (inactive) | 1.79 µM (inactive) | 18.9 µM (inactive) | 11.2 µM (inactive) | 27.9 µM (inactive) | 3.96 µM (inactive) | 12.6 µM (inactive) | 9.42 µM (inactive) | 7.69 µM (inactive) | 16.5 µM (inactive) | 6.1 µM (inactive) | 9.04 µM (inactive) | 17.7 µM (inactive) | 14.9 µM (inactive) | 19.1 µM (inactive) | 8.39 µM (inactive) | 14.5 µM (inactive) | 16.6 µM (inactive) | 
